Reference: ChEMBL document CHEMBL1201862, “PubChem BioAssay data set” (2004)
The source made the active and inactive calls.

Key:
[1] = biological target: Glucose-6-phosphate 1-dehydrogenase (Homo sapiens, UniProt P11413); assay: inhibition of Homo sapiens G6PD, dose series – biochemical, fluorescence, selectivity assay for P. falciparum G6PD inhibitor project, dose response (AID 504792); assay type: functional
[2] = biological target: T1, C-C chemokine receptor type 6 (Homo sapiens, UniProt P51684); assay: antagonism of CCR6 beta-arrestin recruitment – cell-based, luminescent beta-arrestin readout, dose response (AID 504728); assay type: functional
T1 sequence (P51684 whole entry): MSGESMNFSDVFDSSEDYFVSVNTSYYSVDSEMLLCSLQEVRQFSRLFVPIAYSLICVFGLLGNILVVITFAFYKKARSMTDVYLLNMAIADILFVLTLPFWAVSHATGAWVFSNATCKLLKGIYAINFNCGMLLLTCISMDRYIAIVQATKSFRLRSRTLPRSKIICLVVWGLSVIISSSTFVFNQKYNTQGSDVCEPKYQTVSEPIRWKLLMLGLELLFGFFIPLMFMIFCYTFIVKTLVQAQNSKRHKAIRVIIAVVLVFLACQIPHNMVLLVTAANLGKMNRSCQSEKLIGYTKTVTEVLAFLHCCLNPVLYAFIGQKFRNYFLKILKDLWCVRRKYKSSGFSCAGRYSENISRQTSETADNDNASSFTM

Beta-galactosidase = Beta-galactosidase (Escherichia coli, UniProt Q8VNN2); assay: detection-enzyme interference by beta-gal modulators – biochemical, E. coli enzyme, set 3, artefact control for CCR6 antagonist project, dose response (AID 504712); assay type: functional
Hexokinase HKDC1 = biological target: T2, Hexokinase HKDC1 (Homo sapiens, UniProt Q2TB90); assay: inhibition of HKDC1 glucose phosphorylation – biochemical, W721R variant, dose response (AID 504729); assay type: functional
T2 sequence (Q2TB90 whole entry): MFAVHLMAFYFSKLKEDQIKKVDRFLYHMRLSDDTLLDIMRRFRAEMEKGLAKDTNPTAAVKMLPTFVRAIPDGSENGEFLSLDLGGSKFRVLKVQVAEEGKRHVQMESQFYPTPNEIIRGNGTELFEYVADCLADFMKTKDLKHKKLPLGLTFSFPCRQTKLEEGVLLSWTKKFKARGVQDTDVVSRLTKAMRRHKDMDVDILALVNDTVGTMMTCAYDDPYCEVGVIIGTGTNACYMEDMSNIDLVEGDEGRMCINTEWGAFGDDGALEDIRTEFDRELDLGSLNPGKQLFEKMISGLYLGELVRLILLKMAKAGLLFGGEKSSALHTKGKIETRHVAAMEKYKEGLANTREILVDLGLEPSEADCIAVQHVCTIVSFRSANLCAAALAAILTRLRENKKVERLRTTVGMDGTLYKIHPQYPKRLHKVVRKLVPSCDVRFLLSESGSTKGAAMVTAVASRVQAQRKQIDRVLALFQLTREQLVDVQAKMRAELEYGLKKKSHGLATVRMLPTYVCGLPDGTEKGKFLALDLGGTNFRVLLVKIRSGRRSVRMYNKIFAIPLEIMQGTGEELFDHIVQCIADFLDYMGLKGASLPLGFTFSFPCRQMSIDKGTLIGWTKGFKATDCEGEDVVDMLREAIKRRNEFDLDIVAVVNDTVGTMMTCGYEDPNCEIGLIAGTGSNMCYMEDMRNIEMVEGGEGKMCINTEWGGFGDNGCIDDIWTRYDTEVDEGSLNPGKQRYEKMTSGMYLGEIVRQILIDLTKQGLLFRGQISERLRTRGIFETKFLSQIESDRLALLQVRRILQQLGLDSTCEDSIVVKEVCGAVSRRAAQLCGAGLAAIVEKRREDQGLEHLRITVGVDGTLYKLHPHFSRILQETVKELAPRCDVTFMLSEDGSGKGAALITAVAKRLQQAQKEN

Vero = assay: viability of Vero cells under compound – cytotoxicity control for flavivirus capping enzyme inhibitors (AID 588742); assay type: functional; settings: Chlorocebus sabaeus
Genome polyprotein = Genome polyprotein (dengue virus type 2, UniProt P29990); assay: flavivirus cap methylation enzyme inhibition – biochemical, confirmation dose response, primary screen (AID 588689); assay type: functional
[3] = biological target: T3, Mitochondrial peptide methionine sulfoxide reductase (Bos taurus, UniProt P54149); assay: Absorbance-based biochemical high throughput dose response assay for activators of Methionine sulfoxide reductase A (MsrA).; assay type: functional
T3 sequence (P54149 whole entry): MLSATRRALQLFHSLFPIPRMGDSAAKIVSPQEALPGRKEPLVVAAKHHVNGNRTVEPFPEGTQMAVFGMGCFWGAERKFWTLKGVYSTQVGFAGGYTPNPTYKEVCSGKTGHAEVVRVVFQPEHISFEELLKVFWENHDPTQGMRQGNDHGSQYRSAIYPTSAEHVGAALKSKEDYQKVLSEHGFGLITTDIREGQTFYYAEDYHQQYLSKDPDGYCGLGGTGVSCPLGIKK

[4] = Fluorescence-based cell-based high throughput dose response assay for inhibitors of the interaction of nucleotide-binding oligomerization domain containing 2 (NOD2) and the receptor-interacting serine-threonine kinase 2 (RIPK2).; assay type: functional; settings: Homo sapiens
Paired box protein Pax-8 = Paired box protein Pax-8 (Homo sapiens, UniProt Q06710); assay: PAX8 transcriptional activity inhibition in RMG-I – RMG-I cells, luciferase, cherry-pick, dose response (AID 687027); assay type: functional, cell-based;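 also: luciferase reporter driven by Pax8 target thyroperoxidase promoter measured by SteadyGlo luminescence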
[5] = biological target: T4, Tyrosyl-DNA phosphodiesterase 2 (Homo sapiens, UniProt O95551); assay: potency against TDP2 phosphodiesterase activity – biochemical, epi absorbance, IC50, dose response (AID 743297)
T4 sequence (O95551 whole entry): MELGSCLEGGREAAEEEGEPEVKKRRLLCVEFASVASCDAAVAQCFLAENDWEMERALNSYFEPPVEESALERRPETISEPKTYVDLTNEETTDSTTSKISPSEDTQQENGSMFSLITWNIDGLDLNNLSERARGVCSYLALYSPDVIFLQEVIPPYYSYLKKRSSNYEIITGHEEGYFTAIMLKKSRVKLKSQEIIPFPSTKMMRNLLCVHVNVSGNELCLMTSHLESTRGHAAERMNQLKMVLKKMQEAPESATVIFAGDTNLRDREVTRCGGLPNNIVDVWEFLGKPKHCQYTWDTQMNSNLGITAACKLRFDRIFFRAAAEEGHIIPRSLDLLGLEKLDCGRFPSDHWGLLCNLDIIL

[6] = general cell-killing toxicity readout – plate reader, dry powder samples, cytotoxicity control for PAX8 inhibitor project, dose response (AID 743021); assay type: functional, cell-based
[7] = viability loss in THP-1 monocytes – THP-1 cells, cytotoxicity control for Vif-APOBEC3G degradation inhibitor project, dose response (AID 1117359); assay type: functional; settings: THP-1
Insulin-degrading enzyme [8] = biological target: T5, Insulin-degrading enzyme (Homo sapiens, UniProt P14735); assay: recombinant IDE activation, cell-free – biochemical, fluorescence polarization, counter-screen for IDE activator project, dose response (AID 588681)
T5 sequence (P14735 whole entry): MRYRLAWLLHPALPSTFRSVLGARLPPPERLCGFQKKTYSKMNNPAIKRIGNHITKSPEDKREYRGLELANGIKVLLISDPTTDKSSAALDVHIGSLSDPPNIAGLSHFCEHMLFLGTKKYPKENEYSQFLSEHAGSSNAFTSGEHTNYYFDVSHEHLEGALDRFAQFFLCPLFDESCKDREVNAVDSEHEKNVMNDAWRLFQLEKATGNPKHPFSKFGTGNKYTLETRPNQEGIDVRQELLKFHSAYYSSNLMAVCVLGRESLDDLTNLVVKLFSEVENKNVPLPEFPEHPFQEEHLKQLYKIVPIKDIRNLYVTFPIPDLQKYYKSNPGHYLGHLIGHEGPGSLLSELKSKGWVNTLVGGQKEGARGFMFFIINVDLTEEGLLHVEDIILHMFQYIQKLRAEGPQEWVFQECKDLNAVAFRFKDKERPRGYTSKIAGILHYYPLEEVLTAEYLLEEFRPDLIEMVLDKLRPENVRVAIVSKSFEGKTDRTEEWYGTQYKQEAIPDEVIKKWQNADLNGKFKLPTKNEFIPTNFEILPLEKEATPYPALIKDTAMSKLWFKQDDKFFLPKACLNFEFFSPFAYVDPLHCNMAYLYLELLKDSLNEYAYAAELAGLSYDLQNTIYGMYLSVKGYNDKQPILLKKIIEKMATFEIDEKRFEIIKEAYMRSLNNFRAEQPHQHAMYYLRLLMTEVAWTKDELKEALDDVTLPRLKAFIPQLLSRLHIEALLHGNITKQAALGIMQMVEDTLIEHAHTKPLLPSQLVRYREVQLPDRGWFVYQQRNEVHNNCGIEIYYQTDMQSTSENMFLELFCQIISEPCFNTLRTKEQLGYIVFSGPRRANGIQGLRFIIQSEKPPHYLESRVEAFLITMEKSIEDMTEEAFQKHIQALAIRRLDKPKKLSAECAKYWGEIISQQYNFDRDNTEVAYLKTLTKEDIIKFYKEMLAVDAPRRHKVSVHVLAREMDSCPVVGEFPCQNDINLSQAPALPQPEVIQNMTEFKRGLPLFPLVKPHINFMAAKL

Insulin-degrading enzyme [9] = biological target: T5, Insulin-degrading enzyme; assay: cellular IDE activation of Abeta substrate cleavage – fluorescence polarization, HEK cells, dose response (AID 588439); assay type: functional, cell-based
HEK293 [10] = assay: membrane integrity loss in HEK cells – cell-based, fluorescence, cytotoxicity control for IDE activator project, dose response (AID 588440); assay type: functional; settings: Homo sapiens;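 also: cytotoxicity by LDH release measuring loss of membrane integrity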
HEK293 [11] = assay: optical interference in Abeta FP readout, dose response, artefact control for IDE activator project, biochemical, fluorescence polarization (AID 588442); assay type: functional, cell-based; settings: Homo sapiens
Phospholipase D1 = Phospholipase D1 (Homo sapiens, UniProt Q13393); assay: cellular phospholipase D1 inhibition IC50 – cell-based, dose response (AID 602151); assay type: functional;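 also: cellular PLD1 assay in Calu-1 cells stimulated with PMA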
Phospholipase D2 = Phospholipase D2 (Homo sapiens, UniProt O14939); assay: cellular phospholipase D2 inhibition IC50 – cell-based, dose response (AID 602147); assay type: functional;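 also: cellular assay in HEK293 cells overexpressing GFP-tagged PLD2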
Chain of Phospholipase D2 (O14939 whole entry): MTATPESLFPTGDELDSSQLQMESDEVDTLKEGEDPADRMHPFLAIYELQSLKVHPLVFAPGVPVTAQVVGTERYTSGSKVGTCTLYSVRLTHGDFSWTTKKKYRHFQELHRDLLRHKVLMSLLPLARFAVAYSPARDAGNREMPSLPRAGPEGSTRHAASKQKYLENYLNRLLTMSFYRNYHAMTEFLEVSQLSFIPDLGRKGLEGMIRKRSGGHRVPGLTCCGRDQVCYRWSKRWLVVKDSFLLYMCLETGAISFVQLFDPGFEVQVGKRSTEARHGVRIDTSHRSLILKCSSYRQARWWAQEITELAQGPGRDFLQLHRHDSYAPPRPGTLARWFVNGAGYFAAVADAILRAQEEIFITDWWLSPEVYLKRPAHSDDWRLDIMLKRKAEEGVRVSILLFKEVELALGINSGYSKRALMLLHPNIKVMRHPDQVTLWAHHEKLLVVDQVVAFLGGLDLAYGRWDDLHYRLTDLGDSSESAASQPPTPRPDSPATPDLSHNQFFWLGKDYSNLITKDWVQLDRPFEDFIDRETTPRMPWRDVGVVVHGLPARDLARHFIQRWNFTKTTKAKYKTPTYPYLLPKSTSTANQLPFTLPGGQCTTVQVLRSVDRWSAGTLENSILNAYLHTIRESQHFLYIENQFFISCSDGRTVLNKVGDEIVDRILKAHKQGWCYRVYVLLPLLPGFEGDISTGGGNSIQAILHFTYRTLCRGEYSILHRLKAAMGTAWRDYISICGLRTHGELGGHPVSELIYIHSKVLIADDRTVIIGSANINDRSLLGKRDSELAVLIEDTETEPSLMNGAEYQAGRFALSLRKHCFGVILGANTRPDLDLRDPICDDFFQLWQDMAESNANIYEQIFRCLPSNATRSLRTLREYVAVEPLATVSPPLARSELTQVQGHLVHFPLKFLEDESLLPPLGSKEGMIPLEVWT

Chain of Phospholipase D1 (Q13393 whole entry): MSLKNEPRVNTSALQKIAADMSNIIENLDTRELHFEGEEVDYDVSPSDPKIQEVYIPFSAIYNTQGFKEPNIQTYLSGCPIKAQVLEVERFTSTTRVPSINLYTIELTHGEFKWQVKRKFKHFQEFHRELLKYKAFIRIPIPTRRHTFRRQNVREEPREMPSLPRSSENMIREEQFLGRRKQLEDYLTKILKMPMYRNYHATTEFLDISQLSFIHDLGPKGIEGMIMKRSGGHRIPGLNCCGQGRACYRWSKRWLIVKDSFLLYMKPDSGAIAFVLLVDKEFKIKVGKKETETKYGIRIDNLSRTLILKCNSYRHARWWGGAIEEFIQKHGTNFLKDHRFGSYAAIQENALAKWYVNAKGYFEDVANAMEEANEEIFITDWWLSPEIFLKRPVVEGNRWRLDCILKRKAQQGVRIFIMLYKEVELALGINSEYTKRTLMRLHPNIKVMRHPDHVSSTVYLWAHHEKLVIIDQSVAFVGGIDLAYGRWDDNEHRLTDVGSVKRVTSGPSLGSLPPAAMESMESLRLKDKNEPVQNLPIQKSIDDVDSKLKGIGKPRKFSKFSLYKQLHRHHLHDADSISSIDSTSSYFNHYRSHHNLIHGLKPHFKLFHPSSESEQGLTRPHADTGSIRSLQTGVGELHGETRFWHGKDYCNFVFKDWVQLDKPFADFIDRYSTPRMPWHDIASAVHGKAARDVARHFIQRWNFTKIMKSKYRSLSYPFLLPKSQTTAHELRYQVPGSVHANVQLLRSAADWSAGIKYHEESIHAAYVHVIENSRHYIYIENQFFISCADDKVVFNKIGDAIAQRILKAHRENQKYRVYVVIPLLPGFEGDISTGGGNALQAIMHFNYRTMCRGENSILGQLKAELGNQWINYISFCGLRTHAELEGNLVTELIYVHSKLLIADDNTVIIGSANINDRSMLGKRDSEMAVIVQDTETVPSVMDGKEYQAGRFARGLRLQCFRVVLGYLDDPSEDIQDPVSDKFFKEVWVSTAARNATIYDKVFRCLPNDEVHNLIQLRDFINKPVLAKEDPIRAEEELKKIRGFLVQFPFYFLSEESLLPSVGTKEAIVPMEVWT
Chain of Glucose-6-phosphate 1-dehydrogenase (P11413 whole entry): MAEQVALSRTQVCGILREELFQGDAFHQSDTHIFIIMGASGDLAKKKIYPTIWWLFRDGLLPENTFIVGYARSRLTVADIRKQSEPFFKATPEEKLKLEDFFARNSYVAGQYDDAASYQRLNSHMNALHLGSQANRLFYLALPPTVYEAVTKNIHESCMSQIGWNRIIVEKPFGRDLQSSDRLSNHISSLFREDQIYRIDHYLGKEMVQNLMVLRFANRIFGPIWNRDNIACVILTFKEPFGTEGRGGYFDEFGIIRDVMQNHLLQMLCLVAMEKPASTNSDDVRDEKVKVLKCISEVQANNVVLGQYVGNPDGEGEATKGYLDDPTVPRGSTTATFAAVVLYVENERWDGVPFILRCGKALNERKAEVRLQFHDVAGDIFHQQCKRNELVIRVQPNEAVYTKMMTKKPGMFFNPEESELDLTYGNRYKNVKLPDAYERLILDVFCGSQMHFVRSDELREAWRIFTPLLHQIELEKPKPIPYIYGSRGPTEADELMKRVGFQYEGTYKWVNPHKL
Chain of Genome polyprotein (P29990 2492-3391 limits assumed): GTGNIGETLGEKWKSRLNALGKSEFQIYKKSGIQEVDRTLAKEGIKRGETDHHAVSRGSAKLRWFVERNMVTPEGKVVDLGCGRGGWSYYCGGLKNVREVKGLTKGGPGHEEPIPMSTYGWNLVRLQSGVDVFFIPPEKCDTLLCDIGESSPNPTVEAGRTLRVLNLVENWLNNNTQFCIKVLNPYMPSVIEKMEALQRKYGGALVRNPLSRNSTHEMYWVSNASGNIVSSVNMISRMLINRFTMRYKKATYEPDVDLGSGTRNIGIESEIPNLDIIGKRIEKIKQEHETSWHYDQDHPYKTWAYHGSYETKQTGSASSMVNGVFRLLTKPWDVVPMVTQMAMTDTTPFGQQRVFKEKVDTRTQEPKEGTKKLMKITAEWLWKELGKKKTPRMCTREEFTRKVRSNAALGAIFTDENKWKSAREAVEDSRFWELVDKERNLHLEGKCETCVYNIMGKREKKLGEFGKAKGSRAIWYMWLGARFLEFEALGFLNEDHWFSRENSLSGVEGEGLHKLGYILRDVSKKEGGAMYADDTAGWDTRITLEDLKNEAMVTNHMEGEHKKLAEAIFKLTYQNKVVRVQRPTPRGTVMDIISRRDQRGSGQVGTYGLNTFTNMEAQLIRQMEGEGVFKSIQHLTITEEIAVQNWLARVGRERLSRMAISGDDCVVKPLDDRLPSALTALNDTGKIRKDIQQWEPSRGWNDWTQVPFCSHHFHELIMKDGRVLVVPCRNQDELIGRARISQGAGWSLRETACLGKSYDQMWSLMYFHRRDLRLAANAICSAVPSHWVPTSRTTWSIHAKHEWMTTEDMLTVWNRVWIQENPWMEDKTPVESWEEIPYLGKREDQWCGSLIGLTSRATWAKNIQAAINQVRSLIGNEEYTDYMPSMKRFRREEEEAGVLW
Chain of Beta-galactosidase (Q8VNN2 whole entry): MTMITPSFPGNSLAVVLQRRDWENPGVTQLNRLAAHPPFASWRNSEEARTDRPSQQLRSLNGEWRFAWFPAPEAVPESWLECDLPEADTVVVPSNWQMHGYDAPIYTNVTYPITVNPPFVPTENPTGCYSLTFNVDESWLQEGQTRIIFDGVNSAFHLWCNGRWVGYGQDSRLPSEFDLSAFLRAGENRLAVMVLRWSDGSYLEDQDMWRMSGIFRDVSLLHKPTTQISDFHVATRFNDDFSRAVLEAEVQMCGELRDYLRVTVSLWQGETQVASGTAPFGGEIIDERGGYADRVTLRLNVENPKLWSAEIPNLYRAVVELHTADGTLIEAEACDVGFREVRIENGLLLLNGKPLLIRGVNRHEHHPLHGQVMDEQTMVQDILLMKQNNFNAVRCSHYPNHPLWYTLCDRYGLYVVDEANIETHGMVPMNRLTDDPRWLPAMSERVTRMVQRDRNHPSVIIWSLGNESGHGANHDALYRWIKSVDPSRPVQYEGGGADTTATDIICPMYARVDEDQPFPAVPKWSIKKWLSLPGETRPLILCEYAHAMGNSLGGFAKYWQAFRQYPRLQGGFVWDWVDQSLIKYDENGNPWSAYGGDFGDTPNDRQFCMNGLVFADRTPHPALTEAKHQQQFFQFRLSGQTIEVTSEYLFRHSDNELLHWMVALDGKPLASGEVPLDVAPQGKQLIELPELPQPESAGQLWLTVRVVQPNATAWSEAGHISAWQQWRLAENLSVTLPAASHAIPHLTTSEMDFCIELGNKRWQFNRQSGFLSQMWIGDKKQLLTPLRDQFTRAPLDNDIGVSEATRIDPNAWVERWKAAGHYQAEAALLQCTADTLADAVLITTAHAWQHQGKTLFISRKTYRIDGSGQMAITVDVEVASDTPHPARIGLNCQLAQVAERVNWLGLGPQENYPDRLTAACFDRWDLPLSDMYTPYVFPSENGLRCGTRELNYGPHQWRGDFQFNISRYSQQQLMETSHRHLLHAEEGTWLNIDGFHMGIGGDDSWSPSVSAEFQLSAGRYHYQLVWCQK
Chain of Paired box protein Pax-8 (Q06710 whole entry): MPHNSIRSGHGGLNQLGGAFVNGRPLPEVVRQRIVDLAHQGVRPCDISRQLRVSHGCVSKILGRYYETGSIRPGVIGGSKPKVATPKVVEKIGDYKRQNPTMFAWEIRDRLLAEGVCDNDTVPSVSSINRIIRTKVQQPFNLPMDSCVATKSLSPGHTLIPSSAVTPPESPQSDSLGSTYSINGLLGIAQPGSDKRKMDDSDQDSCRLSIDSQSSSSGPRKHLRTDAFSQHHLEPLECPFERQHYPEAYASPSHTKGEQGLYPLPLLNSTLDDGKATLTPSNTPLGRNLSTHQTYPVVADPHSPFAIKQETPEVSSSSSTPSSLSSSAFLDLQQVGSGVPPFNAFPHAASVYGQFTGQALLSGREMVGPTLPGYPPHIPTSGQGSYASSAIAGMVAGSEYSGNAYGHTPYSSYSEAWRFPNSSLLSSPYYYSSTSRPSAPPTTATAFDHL

SMILES	EC50 (Insulin-degrading enzyme [8])	EC50 (Insulin-degrading enzyme [9])	IC50 (HEK293 [10])	EC50 (HEK293 [11])	IC50 (Phospholipase D1)	IC50 (Phospholipase D2)	also measured
O=C(NC1=CC(=O)c2ccccc2C1=O)c1ccccc1							IC50 [1]: 35.7 µM (inactive); IC50 [2]: > 66.6 µM (inactive); IC50 (Beta-galactosidase): > 66.6 µM (inactive); IC50 (Hexokinase HKDC1): 3.09 µM (active); CC50 (Vero): 15.2 µM (active); IC50 (Genome polyprotein): 18.5 µM (active); EC50 [3]: 34.1 µM (inactive); IC50 [4]: 2.06 µM (active); AC50 (Paired box protein Pax-8): 4.43 µM (active); IC50 [5]: 11.7 µM (inactive); AC50 [6]: 24.2 µM (active); CC50 [7]: 2.65 µM (active)
O=C(CSc1nc(N2CCOCC2)nc(N2CCOCC2)n1)Nc1ccc([N+](=O)[O-])cc1	> 54.7 µM (inactive)	> 54.7 µM (inactive)	> 89.2 µM (inactive)	21.2 µM (inactive)			
C[C@@H](CN1CCC(n2c(=O)[nH]c3cc(I)ccc32)CC1)NC(=O)C1CC1c1ccccc1 (some centres undefined)					0.021 µM (active)	6.5 µM (active)	
COC(=O)C(C(=O)OC)c1ncccc1[N+](=O)[O-]	> 54.7 µM (inactive)	> 54.7 µM (inactive)	> 89.1 µM (inactive)	> 55.9 µM (inactive)			
CC(C)[C@@H](CN1CCC2(CC1)C(=O)NCN2c1ccccc1)NC(=O)c1ccc2ccccc2c1					0.14 µM (active)	1.5 µM (active)	
